Among the data in the NIST ThermoML archive (doi:10.1016/j.jct.2018.12.044) are Normal melting temperature values, retold here.

± gives the expanded uncertainty stated by the source.

For the data set the following is noted: Crystal; DTA.

Consider `CC[C@H]1OC(=O)[C@H](C)[C@@H](O[C@H]2C[C@@](C)(OC)[C@@H](O)[C@H](C)O2)[C@H](C)[C@@H](O[C@@H]2O[C@H](C)C[C@H](N(C)C)[C@H]2O)[C@](C)(O)C[C@@H](C)[C@@H]2N[C@@H](COCCOC)O[C@H]([C@H]2C)[C@]1(C)O` [Dirithromycin], for which the Normal melting temperature worked out at 194.36 ± 6 °C.
